Values after ≈ are worked out from the molar mass of the structure shown.
Columns and labels:
S. cerevisiae BY4741 [1] = assay: Clonogenic survival assay (CFU plating); assay type: cell-based, Saccharomyces cerevisiae; conditions: 200 μM 5-MF, day 3 after treatment, untreated control 100%
Protocol: S. cerevisiae BY4741 cells were grown in SMD minimal media to mid-log phase and then treated with the indicated concentrations of 5-MF; control cells were treated with the same amount of solvent (DMSO). (A) Clonogenicity was assayed by plating 500 cells on YPD agar plates and colony forming units (CFUs) were counted to calculate survival rates. (B) Yeast cells were analyzed for cell death markers via AnnV/PI co-staining using flow cytometry. (C) The accumulation of reactive oxygen species was monitored by dihydrotethidium (DHE) to ethidium (Eth) conversion using flow cytometry. Assays in (A-C) were performed on day 3 after treatment. […] Data was analyzed by one-way ANOVA and corrected for multiple comparison using a Bonferroni post-hoc test. ns: not significant, * p<0.05, *** p<0.001, **** p<0.0001. […] Yeast strains were streaked on YPD agar plates and allowed to grow for two days at 28° C. or 30° C., plates were then stored for up to one week at 4° C. […] Survival upon treatment with substances or combinations was analyzed by plating serial dilutions of treated cultures onto YPD agar plates. Plates were incubated for two days at 28° C., colony forming units (CFUs) were counted and survival was calculated compared to the untreated control.

S. cerevisiae BY4741 [2] = assay: AnnexinV/PI co-staining for cell death markers (flow cytometry); assay type: cell-based, Saccharomyces cerevisiae; conditions: day 3 after treatment, indicated concentrations
Protocol: S. cerevisiae BY4741 cells were grown in SMD minimal media to mid-log phase and then treated with the indicated concentrations of 5-MF; control cells were treated with the same amount of solvent (DMSO). (A) Clonogenicity was assayed by plating 500 cells on YPD agar plates and colony forming units (CFUs) were counted to calculate survival rates. (B) Yeast cells were analyzed for cell death markers via AnnV/PI co-staining using flow cytometry. (C) The accumulation of reactive oxygen species was monitored by dihydrotethidium (DHE) to ethidium (Eth) conversion using flow cytometry. Assays in (A-C) were performed on day 3 after treatment. […] Data was analyzed by one-way ANOVA and corrected for multiple comparison using a Bonferroni post-hoc test. ns: not significant, * p<0.05, *** p<0.001, **** p<0.0001. […] Cell death markers were assessed by AnnexinV/PI co-staining. Therefore, 1-2×10^7 cells were harvested and treated with 3 μL […]; Sigma, Germany) and 15 μL glucuronidase/arylsulfatase (4.5 U/mL; Roche, Austria) for sphaeroblastation (60 min at 28° C. and 145 rpm). Resulting sphaeroblasts were co-stained with AnnexinV (Roche, Austria) and PI (Sigma, Germany) and analyzed via flow cytometry, using an LSRII Fortessa (BD, Ex: 488 nm; Em: 695 nm for PI and 530 nm for FITC). At least 30,000 cells were analyzed for each sample.

S. cerevisiae = assay: MIC determination, CLSI protocol M27-A3, OD490; assay type: cell-based; conditions: Saccharomyces cerevisiae; S. cerevisiae planktonic growth, 50% reduction vs control, mean±SEM
Protocol: S. cerevisiae BY4741 cells were grown in SMD minimal media to mid-log phase and then treated with the indicated concentrations of 5-MF; control cells were treated with the same amount of solvent (DMSO). (A) Clonogenicity was assayed by plating 500 cells on YPD agar plates and colony forming units (CFUs) were counted to calculate survival rates. (B) Yeast cells were analyzed for cell death markers via AnnV/PI co-staining using flow cytometry. (C) The accumulation of reactive oxygen species was monitored by dihydrotethidium (DHE) to ethidium (Eth) conversion using flow cytometry. Assays in (A-C) were performed on day 3 after treatment. […] Data was analyzed by one-way ANOVA and corrected for multiple comparison using a Bonferroni post-hoc test. ns: not significant, * p<0.05, *** p<0.001, **** p<0.0001. […] The minimal inhibitory concentration (MIC) was determined following the standard Clinical and Laboratory Standards Institute (CLSI) protocol M27 (Rex JH, and Clinical and Laboratory Standards Institute (2008). Reference method for broth dilution antifungal susceptibility testing of yeasts: approved standard, 3rd ed. National Committee for Clinical Laboratory Standards, Wayne, PA) for yeast strains or the standard CLSI protocol […] […] After incubation, OD490 values were measured using 96-well plate reader and growth capacity was analyzed by setting the corresponding control to 100%. […]

C. albicans SC5314 = assay: MIC determination, CLSI protocol M27-A3, OD490; assay type: cell-based, Candida albicans; conditions: C. albicans SC5314, 50 μM 5-MF, untreated control 100%
[3] = system: C. albicans SC5314 biofilms; assay: Biofilm inhibition concentration (BIC), CTB staining; assay type: cell-based; conditions: Candida albicans, C. albicans SC5314 biofilm formation, mean±SEM, read-out: BIC-50
C. glabrata biofilms = assay: Biofilm inhibition by plating (CFU of biofilm cells); assay type: cell-based, Candida glabrata; conditions: different concentrations of 5-MF
C. albicans = assay: In vitro antifungal activity of flavone in combination with azoles, growth via OD490; assay type: cell-based, Candida albicans; conditions: OD490, flavone plus azole vs each alone
Candida albicans = conditions: according to CN 105 669 625 A; cited from earlier work

Compound: COc1cccc2oc(-c3ccccc3)cc(=O)c12 [5-MF, 5-methoxyflavone]
- yeast survival (clonogenic assay, CFUs) (S. cerevisiae BY4741 [1]): 31%
- cell death markers, PI-positive fraction (AnnV/PI co-staining) (S. cerevisiae BY4741 [2]): mainly increased the PI-positive fraction in a concentration-dependent manner
- MIC50 (S. cerevisiae): 90.6 ± 12.4 µM (≈ 22.9 µg/mL)
- growth of planktonic cells compared to untreated cells (C. albicans SC5314): about 60%
- IC50 [3]: 216 ± 26.6 µM
- number of biofilm cells (CFUs on YPD agar) (C. glabrata biofilms): decreased in a concentration-dependent manner
- enhancement of the antifungal activity of azoles in the presence of the flavone (C. albicans): enhancement of the antifungal activity
- synergistic antifungal effect with fluconazole (Candida albicans): does not show such synergistic effect

Source: patent US12673038B2, “Antimycotic methoxyflavone and fluconazole combination for inhibiting cryptococcus” (Karl-Franzens-Universität Graz, priority 2019, dated 2026)
